The source of these data is patent publication US20050076943A1, “Thermoelectric sensor” (priority 2001, published 2005).

Assay [1] deals with rabbit ventricular cardiomyocytes. Put plainly: Heat output from isolated cardiac myocytes challenged with a mitochondrial uncoupler. To be noted: CCCP 14 μM final concentration, n=5. The class given is cell-based. As for the experimental part:
Cardiomyocytes. Isolated cells were obtained from adult rabbit left ventricle by collagenase digestion and kept in Base Krebs Solution, containing: 120 mM NaCl, 20 mM sodium N-hydroxyethylpiperazine-N′-2-ethane sulphonic acid (HEPES), 5.4 mM KCl, 0.52 mM NaH2PO4, 3.5 mM MgCl2.6 H2O, 20 mM taurine, 10 mM creatine, 11.1 mM glucose, 0.1% bovine serum albumin (BSA), pH 7.4. Cells were transferred to the sensor chips using a pipette (manual or robotic instrument) and placed onto the thermocouple junctions.
Experimental Set-up: The sensor chip used in the experiment (FIG. 1) was connected to the custom-made low noise preamplifier, which was positioned within 1 cm of the sensor chip in order to reduce attenuation of the voltage signal and minimise interference. The chip-holder was connected to the amplifier through a gold plated 2.54 mm (0.1 inch) pitch PCB edge connector (gold was used consistently in all contacts to avoid the creation of additional thermocouple junctions between the sensor output and the amplifier input). A transparent chamber enclosed the sensor from the surrounding air to eliminate rapid temperature changes. Water (37° C. or 25° C.), maintained at a constant temperature, was circulated through a 1 ml chamber integrated as part of the copper base plate. […]

Assay [2] relates to single mouse liver cell. To be noted: H2O2 initial concentration 14 mM, 700 pL, n=3.
Description: The culture medium (pH 7.4) required to accommodate the cell occupied the full volume of the reaction vessel, and was considered to have the same thermodynamic properties as water. […] The heat conductance for a single cell system would be 80 μW/K with a heat capacity of 1 μJ/K.
Subsequently a mouse liver cell was positioned by a micromanipulator and immobilised on top of the temperature sensors in the reaction vessel with the aid of Cell-Tak tissue adhesive ensuring good thermal contact between the cell and sensor surface. H2O2 was then microinjected to yield an initial concentration of 14 mM after 200 seconds of the experiment commencing. The slightly altered pH value of the medium has minimal effect on the catalase activity. […] The short time constant for thermal equilibrium of the sensor (12 ms) compared to the long time duration of the measured signal (100 s), excludes a temperature difference in the injected solution as the cause of the measured temperature change.
The subject of assay [3] is brown adipocytes. Put plainly: Thermogenic response (heat output) of cultured brown adipocytes on the thermoelectric sensor. Format: cell-based. Here is the method: Brown adipocytes. Brown adipose tissue (BAT) was dissected from the interscapular, subscapular and the axillary regions of four 4-week-old male Naval Medical Research Institute (NMRI) mice. Pre-adipocytes were isolated and seeded in three 30 mm culture dishes and incubated in medium containing sodium bicarbonate (3.7 g/l) under 8% CO2 atmosphere for 6 days, after which time they were harvested. The culture medium based on DMEM with pH 7.4, was modified with 10% foetal calf serum, 20 nM insulin, 1 nM triiodothyronin (T3), 25 μg/ml Na-ascorbate, 4 mM glutamine, 10 mM HEPES, 50 IU/ml penicillin and 50 μg/ml streptomycin. Insulin was required for the expression of mitochondrial uncoupling protein (UCP) whereas the presence of T3 increased the thermogenic response due to more β-adrenergic receptors on the cells. All chemicals were supplied from Sigma-Aldrich and ICN Biomedicals Inc.
Experimental Set-up: The sensor chip used in the experiment (FIG. 1) was connected to the custom-made low noise preamplifier, which was positioned within 1 cm of the sensor chip in order to reduce attenuation of the voltage signal and minimise interference. The chip-holder was connected to the amplifier through a gold plated 2.54 mm (0.1 inch) pitch PCB edge connector (gold was used consistently in all contacts to avoid the creation of additional thermocouple junctions between the sensor output and the amplifier input). A transparent chamber enclosed the sensor from the surrounding air to eliminate rapid temperature changes. Water (37° C. or 25° C.), maintained at a constant temperature, was circulated through a 1 ml chamber integrated as part of the copper base plate. Both amplifier and sensor were positioned under a stereo-microscope for the manipulation and positioning of cells, injection of drugs and visual observation throughout the experiment,. The attachment of cells on the thermopile was enhanced by pre-treating the sensor surface with poly-L-lysine, adsorbed from a 0.01% solution in buffer.
The cell chamber was first covered with a 0.5 μL drop of culture medium with a subsequent addition of 15 μL liquid paraffin (mineral oil) in order to prevent evaporation of the medium. Re-suspended adipocytes (or cardiomyocytes) were positioned on top of the sensing junctions using a micropipette and micromanipulator (FIG. 3a, b, c). Excess medium was removed from the titre chamber leaving a total volume of 700 pL.
Measurements of heat output from cells were made with the cell chamber filled with 700 pL of culture medium and overlain with a layer of mineral oil to prevent evaporation. The device was held at a constant temperature of either 25° C. or 37° C. In the absence of cells there was no response from the thermopile to the injection of 10 pL of culture medium, nor to 10 pL culture medium containing a final concentration of 1.4 μM NE (see FIG. 4). […] The magnitude of the response was consistent with published values from populations of cells, where above-threshold levels of NE activation induced a ten-fold increase in oxygen consumption.

Where only a bound is given, the exact number is not on record here.

In the case of `N#CC(C#N)=NNc1cccc(Cl)c1` [CCCP, carbonyl cyanide m-chlorophenyl hydrazone], in assay [1], the “heat production per cell” value amounted to 1.71 nW per cell. Further, the “mean change in signal” value in assay [1] (within three minutes) is reported as 136 μK.

Regarding `OO` [H2O2, Hydrogen peroxide], the “generated power, maximum signal change” value in assay [2] was 38.2 nW.

Regarding `NC[C@H](O)c1ccc(O)c(O)c1` [NE, noradrenaline], in assay [3] (1.4 μM NE final concentration (saturated thermogenic response)), the “time to maximum value of heat production” value was ≤ 2 min. Further, in assay [3] (NE-stimulated cells, 1.4 μM), the “duration for which heat output was sustained” value was “at least 20 minutes”. Besides, the “average power output per cell” value in assay [3] (brown adipocytes, 1.4 μM NE final concentration, n=5) is 1.63 nW per cell. Moreover, the “average power output, thermogenic response from groups of 10 NE-stimulated cells” value in assay [3] (groups of 10 brown adipocytes, 1.4 μM NE final concentration, 700 pL chamber, n=5) is listed as 16.3 nW.

In the case of `C=C(C)[C@H]1Cc2c(ccc3c2O[C@@H]2COc4cc(OC)c(OC)cc4[C@@H]2C3=O)O1` [rotenone], the “delay before temperature response began to return to basal level” value in assay [3] (NE-stimulated brown adipocytes, rotenone 14 μM final concentration) was found to be 3 min. The “time for temperature response to return to basal level” value in assay [3] (NE-stimulated brown adipocytes, rotenone 14 μM final concentration, after the delay) is ≤ 5 min.
